Tested on: human umbilical vein endothelial cells (HUVECs)
Assay: SWELL1, pAKT2 and p-eNOS western blots in HUVECs
Type: cell-based
Conditions: 96 h
Method: HUVECs were purchased from ATCC (CRL-2922^TM) and were grown in M199 growth media supplemented with 20% FBS, 0.05 g Heparin Sodium Salt (Alfa Aesar), and 15 mg ECGS (Millipore Sigma). Cells were cultured on 1% of gelatin-coated plates at 37 °C and 5% CO2. For SN-40X stimulated eNOS and AKT signaling assays, HUVECs were treated for 96 h with the respective compounds and serum-starved overnight (+DMSO or +SN-40X) for 16 h in M199 media plus 1% FBS (Atlanta Biological). After the serum starve, HUVECs were returned to normal growth media for 30 min (+DMSO or +SN-40X) prior to lysate collection. Small interfering RNA (siRNA) mediated knockdown was adapted from Koh et. al., 2008[81]. Briefly, HUVECs were transfected with either a silencer select siRNA with si-SWELL1 (Cat#4392420, sense: […] antisense: […], Invitrogen) or a non-targeting control silencer select siRNA (Cat# 4390846, Invitrogen) upon reaching 90–95% confluency. siRNA was transfected twice, 24 and 72 h after initial seeding of HUVECs. Each siRNA was combined with Opti-MEM (285.25 µl, Cat#11058-021, Invitrogen) siPORT™ amine (8.75 µl, Cat#AM4503, Invitrogen), and the silencer select siRNA (6 µl) in a final volume of 300 µl. HUVECs were transfected for 4 h at 37 °C in 1% FBS containing DMEM media. For short hairpin RNA (shRNA) mediated knockdown approach, HUVECs were transduced with either human adenovirus type 5 targeting SWELL1 (Ad5-shSWELL1) or scrambled non-targeting control (Ad5-shSCR) at a multiplicity of infection (MOI) of 50 for 24 h at 37 °C upon reaching 70% confluency. The cells were then washed with DMEM media and transduced a second time, with a fresh virus, with an MOI of 25 for 12 h at 37 °C. After the final transduction step, the cells were serum-starved as described above for HUVECs, and lysates were collected. The SN-40X compounds were present in the culture media throughout the transfection/transduction for both the si/sh RNA mediated knockdown approaches. HEK-293 (ATCC, #CRL-1573™) cells were maintained in 90% DMEM (25 mM D-Glucose and 4 mM L-Glutamine) containing 10% fetal bovine serum (FBS) and 100 IU penicillin and 100 µg/ml streptomycin.
Adipocytes were washed twice in ice-cold phosphate buffer saline and lysed in RIPA buffer (150 mM NaCl, 20 mM HEPES, 1% NP-40, 5 mM EDTA, pH 7.4) with proteinase/phosphatase inhibitors (Roche). The cell lysate was further sonicated in 10 s cycle intervals 2–3 times and centrifuged at 18,407×g for 30 min at 4 °C and repeated one more time to remove the excess fat. The supernatant was collected and further estimated for protein concentration using a DC protein assay kit (Bio-Rad). Fat and liver tissues were homogenized and suspended in RIPA buffer with inhibitors and further processed in a similar fashion as described above. HUVECs were also prepared in a similar fashion except the lysates were spun only once to remove the cells debris to obtain the clear supernatant. For islets, either human or mouse islets were washed twice with phosphate buffer saline (PBS) and lysed using RIPA buffer containing protease and phosphatase inhibitors. The lysate was further clarified by freezing in liquid nitrogen for about 10 s for three cycles. The supernatant was collected from the whole lysate centrifuged at 16,260×g for 20 min at 4 °C. […] For soleus muscle, the tissue was homogenized in a Bullet Blender homogenizer (Speed-9, Time-3 mins) in 8 volumes of ice-cold muscle homogenization buffer (50 mM Tris, 25 mM NaCl, 0.2% Nonidet P-40, 5 mM EGTA, 2.5 mM EDTA, 20 mM NaF, 20 mM Na4P2O7·10H2O, 2 mM Na3VO4, pH 7.4) supplemented with protease/phosphatase inhibitor (Roche). The homogenized lysate was centrifuged two times at 18,500×g for 20 min at 4 °C and supernatant was collected for protein estimation. Protein samples were further prepared by boiling in 2X or 4X Laemmli buffer. […]

For `CCCCC1(C2CCCC2)Cc2cc(OCC(=O)O)c(Cl)c(Cl)c2C1=O` (stereo not drawn) [Inactive 1, 2-((2-butyl-6,7-dichloro-2-cyclopentyl-1-oxo-2,3-dihydro-1H-inden-5-yl)oxy)acetic acid], which “effect on SWELL1, pAKT2 and p-eNOS” value (500 nM) is on record?
The value was “no effect”.

`CCCCC1(C2CCCC2)Cc2cc(OCCCC(=O)O)c(Cl)c(Cl)c2C1=O` (stereo not drawn) [SN-401, 4-((2-butyl-6,7-dichloro-2-cyclopentyl-1-oxo-2,3-dihydro-1H-inden-5-yl)oxy)butanoic acid] was tested. Which “eNOS phosphorylation (Ser1177)” value (500 nM) did it give?
The value was “increases”.

And the “dose dependence of p-eNOS induction” value (different concentrations)?
The value was “dose-dependent induction of p-eNOS in HUVECs that saturates beyond 100 nM”.

What does the source list for `CCCCC1(C2CCCC2)Cc2cc(OCCCCCC(=O)O)c(Cl)c(Cl)c2C1=O` (stereo not drawn) [SN-406, 6-((2-butyl-6,7-dichloro-2-cyclopentyl-1-oxo-2,3-dihydro-1H-inden-5-yl)oxy)hexanoic acid]?
SWELL1 induction compared to vehicle (100 nM): 1.5 fold; basal pAKT2 induction compared to vehicle (100 nM): 2.8 fold; p-eNOS induction compared to vehicle (100 nM): 5.5 fold

— article PMC8831520, “Small molecule SWELL1 complex induction improves glycemic control and nonalcoholic fatty liver disease in murine Type 2 diabetes” (Nature Communications, 2022)
